Earlier results as cited in patent publication US20220226307A1, “INHIBITION OF BETA-2 NICOTINIC ACETYLCHOLINE RECEPTORS TO TREAT ALZHEIMER'S DISEASE PATHOLOGY” (INSTITUT PASTEUR, priority 2016, published 2022).

System: ventral hippocampus alpha-7 nAChR and alpha-4 beta-2 nAChR
Conditions: local infusion in ventral hippocampus (Felix and Levin, 1997; Levin et al., 2002)

Br.CO[C@H]1CC=C2CCN3CCC4=C(CC(=O)OC4)[C@]23C1 [DHβE, dihydro-β-erythroidine hydrobromide]
working memory: induces working memory impairments

CCN1C[C@]2(COC(=O)c3ccccc3N3C(=O)C[C@H](C)C3=O)CC[C@H](OC)[C@@]34[C@@H]5C[C@H]6[C@H](OC)[C@@H]5[C@](O)(C[C@@H]6OC)[C@@](O)([C@@H](OC)[C@H]23)[C@@H]14 [MLA, methyllycaconitine]
working memory: induces working memory impairments
